Where “and” joins values, the source holds several entries; their conditions need not be identical. Equal values may be shown once.
What was measured:
Metabolic chamber assay = format: in vivo, mouse; design: AUC of RER / AUC of RER, group mean: unit not given beside the values; conditions: for RER of DIO: DIO ip APC, single animals
Procedure: Metabolic parameters of mice were determined using Columbus Instruments Comprehensive Lab Animal Monitoring System (CLAMS). The area unit under the curve (AUC) of respiratory exchange ratio (RER) and ambulatory activity (X-TOT) were calculated using Graphpad prism 8.0.

[1] = system: cAMP in primary hepatocytes; experiment: Measurement of cAMP levels; format: cell-based, mouse; conditions: for cAMP, mean / cAMP: Gluc; for cAMP, mean: n=4 (Ctrl_Gluc 10.79); for cAMP: Supp. fig.3c, individual replicates
Procedure: At the end of indicated treatments, primary hepatocytes were collected in lysis buffer. The cAMP contents of cell lysates were then determined using cAMP ELISA kits (R&D) and normalized by total protein content as determined by BCA assay (Thermo).

Pharmacokinetic studies = format: in vivo, mouse; conditions: ICR mice; for half-life: ICR
Procedure: Male ICR mice (18–20 g, n = 3 in each group) were randomly assigned to treatment groups. After 12-h of fasting, baseline blood was collected into a tube containing ethylenediaminetetraacetic acid (EDTA). Animals were then treated orally with compound A57 or APC (p.o.: 20 mg/kg, in DMSO/0.5% HPMC 5/95, v/v) and intravenous injected the selected compounds (i.v.: 2 mg/kg, in DMSO/EtOH/PEG300/NaCl 5/5/40/50, v/v/v/v). Subsequently, blood samples per mouse were collected at 0.25, 0.5, 1, 2, 4, 8, 24 h for p.o.-treated groups and 0.05, 0.25, 0.75, 2, 4, 6, 8, 24 h for i.v.-treated groups. All samples were centrifuged at 12,000 rpm for 3 min, and the plasma was harvested. Aliquots of plasma samples were stored at −80 °C until analysis. The selected compounds' serum concentrations were determined by liquid chromatography/tandem mass spectrometry (LC–MS–MS). Pharmacokinetic parameters were determined from the selected compounds' serum concentrations by noncompartmental methods using WinNonLin professional version 4.1 (Pharsight Corp., Mountain View, CA).

[2] = male, mouse, plasma, iv, i.v. 2 mg/kg
[3] = male, mouse, plasma, po, p.o. 20 mg/kg

CC(C)=CCc1cc(C=CC(=O)O)cc(CC=C(C)C)c1O [APC, 3,5-diprenyl-4-hydroxycinnamic acid]
RER of DIO (Metabolic chamber assay; interval 55, hour 20.2): 0.793 and 0.823 and 0.818 and 0.827
RER of DIO (Metabolic chamber assay; interval 56, hour 20.5): 0.819 and 0.827 and 0.837 and 0.791
RER of DIO (Metabolic chamber assay; interval 57, hour 20.9): 0.849 and 0.806 and 0.795 and 0.788
RER of DIO (Metabolic chamber assay; interval 58, hour 21.3): 0.795 and 0.771 and 0.783 and 0.79
RER of DIO (Metabolic chamber assay; interval 59, hour 21.6): 0.833 and 0.785 and 0.748 and 0.783
RER of DIO (Metabolic chamber assay; interval 60, hour 22.0): 0.787 and 0.839 and 0.786 and 0.789
RER of DIO (Metabolic chamber assay; interval 61, hour 22.4): 0.78 and 0.845 and 0.792 and 0.77
RER of DIO (Metabolic chamber assay; interval 62, hour 22.7): 0.799 and 0.852 and 0.77 and 0.81
RER of DIO (Metabolic chamber assay; interval 63, hour 23.1): 0.815 and 0.784 and 0.793 and 0.796
RER of DIO (Metabolic chamber assay; interval 64, hour 23.5): 0.868 and 0.804 and 0.79 and 0.793
RER of DIO (Metabolic chamber assay; interval 65, hour 23.8): 0.88 and 0.841 and 0.837 and 0.825
RER of DIO (Metabolic chamber assay; interval 66, hour 24.2): 0.846 and 0.879 and 0.838 and 0.813
RER of DIO (Metabolic chamber assay; interval 67, hour 24.6): 0.838 and 0.875 and 0.807 and 0.8
RER of DIO (Metabolic chamber assay; interval 68, hour 24.9): 0.86 and 0.913 and 0.847 and 0.857
RER of DIO (Metabolic chamber assay; interval 69, hour 25.3): 0.873 and 0.865 and 0.838 and 0.896
RER of DIO (Metabolic chamber assay; interval 70, hour 25.7): 0.843 and 0.89 and 0.8 and 0.847
AUC of RER (Metabolic chamber assay; WT mice, individual mice): 64.64 and 64.37 and 63.27 and 66.85
Twenty-four hours respiratory exchange ratio (RER) (Metabolic chamber assay; WT mice, individual mice, reading 6): 0.933 and 0.928 and 0.895 and 0.97
Twenty-four hours respiratory exchange ratio (RER) (Metabolic chamber assay; WT mice, individual mice, reading 7): 0.939 and 0.96 and 0.973 and 0.974
Twenty-four hours respiratory exchange ratio (RER) (Metabolic chamber assay; WT mice, individual mice, reading 8): 0.918 and 0.961 and 0.922 and 0.982
Twenty-four hours respiratory exchange ratio (RER) (Metabolic chamber assay; WT mice, individual mice, reading 9): 0.913 and 0.964 and 0.926 and 0.986
Twenty-four hours respiratory exchange ratio (RER) (Metabolic chamber assay; WT mice, individual mice, reading 10): 0.969 and 0.971 and 0.952 and 0.978
Twenty-four hours respiratory exchange ratio (RER) (Metabolic chamber assay; WT mice, individual mice, reading 11): 0.955 and 0.975 (2×) and 0.936
Twenty-four hours respiratory exchange ratio (RER) (Metabolic chamber assay; WT mice, individual mice, reading 12): 0.989 and 0.966 and 0.963 and 1.016
Twenty-four hours respiratory exchange ratio (RER) (Metabolic chamber assay; WT mice, individual mice, reading 13): 0.967 and 0.988 and 0.98 and 0.99
Twenty-four hours respiratory exchange ratio (RER) (Metabolic chamber assay; WT mice, individual mice, reading 14): 0.975 and 0.999 and 0.954 and 1.005
Twenty-four hours respiratory exchange ratio (RER) (Metabolic chamber assay; WT mice, individual mice, reading 15): 0.988 and 0.994 and 0.959 and 0.969
Twenty-four hours respiratory exchange ratio (RER) (Metabolic chamber assay; WT mice, individual mice, reading 16): 1.003 and 0.991 and 0.965 and 0.97
Twenty-four hours respiratory exchange ratio (RER) (Metabolic chamber assay; WT mice, individual mice, reading 17): 1.006 and 0.99 and 0.951 and 0.989
Twenty-four hours respiratory exchange ratio (RER) (Metabolic chamber assay; WT mice, individual mice, reading 18): 0.963 and 0.961 and 0.974 and 1.025
Twenty-four hours respiratory exchange ratio (RER) (Metabolic chamber assay; WT mice, individual mice, reading 19): 0.958 and 0.976 and 0.946 and 1.032
Twenty-four hours respiratory exchange ratio (RER) (Metabolic chamber assay; WT mice, individual mice, reading 20): 0.939 and 0.961 and 1.004 and 1.024
Twenty-four hours respiratory exchange ratio (RER) (Metabolic chamber assay; WT mice, individual mice, reading 21): 0.991 and 1.018 and 0.961 and 0.993
Twenty-four hours respiratory exchange ratio (RER) (Metabolic chamber assay; WT mice, individual mice, reading 22): 0.946 and 0.962 and 0.958 and 0.989
Twenty-four hours respiratory exchange ratio (RER) (Metabolic chamber assay; WT mice, individual mice, reading 23): 0.971 and 1.012 and 0.999 and 0.985
Twenty-four hours respiratory exchange ratio (RER) (Metabolic chamber assay; WT mice, individual mice, reading 24): 1.006 and 0.997 and 0.993 and 1.002
Twenty-four hours respiratory exchange ratio (RER) (Metabolic chamber assay; WT mice, individual mice, reading 25): 0.971 and 0.965 and 0.961 and 0.984
Twenty-four hours respiratory exchange ratio (RER) (Metabolic chamber assay; WT mice, individual mice, reading 26): 0.941 and 0.984 and 1.005 and 0.996
Twenty-four hours respiratory exchange ratio (RER) (Metabolic chamber assay; WT mice, individual mice, reading 27): 0.981 and 0.968 and 0.989 and 0.998
Twenty-four hours respiratory exchange ratio (RER) (Metabolic chamber assay; WT mice, individual mice, reading 28): 0.956 and 0.954 and 0.968 and 0.984
Twenty-four hours respiratory exchange ratio (RER) (Metabolic chamber assay; WT mice, individual mice, reading 29): 0.975 and 0.977 and 0.994 and 1.026
Twenty-four hours respiratory exchange ratio (RER) (Metabolic chamber assay; WT mice, individual mice, reading 30): 0.994 and 0.963 and 1.014 and 1.033
AUC of RER, group mean (Metabolic chamber assay; WT mice, n=4): 64.78
respiratory exchange ratio (RER) and energy expenditure (Metabolic chamber assay; db/db mice): significantly elevated
cAMP, mean ([1]; APC 0.5H): 11.36 pmol/µg
cAMP, mean ([1]; APC 1H): 10.43 pmol/µg
cAMP, mean ([1]; APC 5H): 10.31 pmol/µg
cAMP ([1]; APC 0.5H): 9.765 pmol/µg and 13.6965 pmol/µg and 13.5803 pmol/µg and 8.4137 pmol/µg
cAMP ([1]; APC 1H): 10.9076 pmol/µg and 11.1137 pmol/µg and 11.3636 pmol/µg and 8.343 pmol/µg
cAMP ([1]; APC 5H): 11.3502 pmol/µg and 9.481 pmol/µg and 11.2821 pmol/µg and 9.132 pmol/µg
cAMP accumulation induced by glucagon ([1]; primary hepatocytes): did not alter
Fpo (Pharmacokinetic studies; p.o. 20 mg/kg vs i.v. 2 mg/kg): 14.4%
T1/2 (Pharmacokinetic studies; p.o. 20 mg/kg, 20 mg/kg): 3.29 h
half-life (Pharmacokinetic studies; male, mouse, plasma, iv, 2 mg/kg, i.v. 2 mg/kg): 5.89 h
half-life (Pharmacokinetic studies; male, mouse, plasma, po, 20 mg/kg, p.o. 20 mg/kg): 2.11 h
AUC(0-t) (Pharmacokinetic studies; [2]): 428 ng·h/mL
MRT (Pharmacokinetic studies; [2]): 2.46 h
clearance (Pharmacokinetic studies; [2]): 78 mL/min/kg
AUC(0-t) (Pharmacokinetic studies; [3]): 616 ng·h/mL
Cmax (Pharmacokinetic studies; [3]): 510 ng/mL
MRT (Pharmacokinetic studies; [3]): 4.33 h
Tmax (Pharmacokinetic studies; [3]): 0.25 h

Reference: paper PMC8752738, “A propolis-derived small molecule ameliorates metabolic syndrome in obese mice by targeting the CREB/CRTC2 transcriptional complex” (Nature Communications, 2022)
